Laboratory results: US5604209A, “Synergistic antiviral compositions” (Mitsubishi Chemical Corporation, priority 1993, dated 1997)

Legend:
[1] = target: T1, HIV-1 reverse transcriptase (Human immunodeficiency virus type 1 group M subtype B, UniProt P04585); assay: Inhibition of HIV-1 reverse transcriptase (incorporation of tritiated thymidine phosphate into cDNA), alone and combined with AZT-TP; assay type: biochemical; conditions: for Combination Index CI50 (50% inhibition of RT) / Combination Index CI70 (70% inhibition of RT) / Combination Index CI90 (90% inhibition of RT): in combination with AZT-TP, AZT-TP/compound ratio 1/20 (MKC-442), 1/250 (R82913), 1/250 (Nevirapine), 1/40 (L-696229), CI<1 synergistic, CI>1 counterbalance
T1 construct: HIV-1 reverse transcriptase (RT)
Protocol: The inhibitory activity was evaluated on the basis of the incorporation Of tritiated thymidine phosphate into acid-precipitating cDNA in the presence of HIV-1 reverse transcriptase (RT).
To a reaction solution (50 mM Tris-HC1, pH 8.4, 0.1% Triton X-100, 100 mM magnesium chloride, 2 mM dithiothreitol, 50 mM potassium chloride, 0.1 mg/ml bovine serum albumin (nuclease-free, Worthington, Freehold, N.J.), 0.5 μCi [methyl-^3 H]TTP and 12 μg/ml poly(rA). p(dT)12-18)was added 10% solution of a test drug in dimethyl sulfoxide and RT (0.05 units) to obtain a reaction mixture of total volume of 50 μl. The mixture was incubated at 37° C. for 30 min and the reaction stopped with 2M EDTA (10 μl). The resultant reaction mixture (50 μl) was spotted on Whatman DE-81 filter paper circle. The circle was washed with 5% disodium hydrogenphosphate (×3), water (×2) and 95% ethanol (×2) and the radiation was counted with scintillation counter.
Thus, an isoborogram was prepared to evaluate the effect of combined use of AZT-TP and various allosteric inhibitors according to the method of Chou et al., Adv. Enzyme Regul., 22, 27-55 (1984) (FIG. 1). The data plotted were obtained by dividing IC50, the concentration of an allosteric inhibitor required to achieve 50% inhibition of reverse transcriptase of HIV, in the presence of AZT-TP with IC50 of an allosteric inhibitor obtained in the absence of a given concentration of AZT-TP. In the FIG. 1, each symbol represents individual allosteric inhibitor as follows.
Combination indexes (CI) for 50%, 70% and 90% inhibition of RT (representedby CI50, CI70 and CI90) were calculated according to the method of Prichard et al., Antimicrob. Agents Chemother., 35, 1060-1065 (1991) on the basis of results obtained in experiments carried out at least twice at indicated concentration ratio. Results are shown in Table 1 below, wherein CI<1 means the synergistic effect; CI1, additive effect; and CI>1, counterbalance effect.

[2] = background statement; cited from earlier work

Row | Compound | concentration of AZT-TP for 50% inhibition of RT as fraction of its IC50 alone ([1]; in the presence of MKC-442 at 1/2 concentration of its IC50) | Combination Index CI50 (50% inhibition of RT) [1] | Combination Index CI70 (70% inhibition of RT) [1] | Combination Index CI90 (90% inhibition of RT) [1] | reported side effects [2] | IC50 ([1]; used alone, poly(rA).p(dT)12-18 template, 37° C., 30 min, read-out: IC50 (concentration required to obtain 50% inhibition of RT when used alone)) [nM]
1 | Cc1cn([C@H]2C[C@H](N=[N+]=[N-])[C@@H](COP(=O)(O)OP(=O)(O)OP(=O)(O)O)O2)c(=O)[nH]c1=O [AZT-TP, 3'-azide-3'-deoxythymidine triphosphate] | about 1/10 | – | – | – | – | –
2 | Cc1ccnc2c1NC(=O)c1cccnc1N2C1CC1 [Nevirapine, 5,11-Dihydro-11-cyclopropyl-4-methyldipyrido[2,3,-b:2',3'-e][1,4]diazepine-6-one] | – | 1.04 | 0.91 | 0.69 | – | –
3 | CC(C)=CCN1Cc2cc(Cl)cc3[nH]c(=S)n(c23)C[C@@H]1C [R82913, (+)-(S)-9-Chloro-4,5,6,7-tetrahydro-5-methyl-6-(3-methyl-2-butenyl)imidazo[4,5,1-jk][1,4]benzodiazepine-2(1H)-thione] | – | 1.15 | 1.33 | 1.70 | – | –
4 | Cc1cn([C@H]2C[C@H](N=[N+]=[N-])[C@@H](CO)O2)c(=O)[nH]c1=O [AZT, 3'-azide-3'-deoxythymidine] | – | – | – | – | severe anemia or leukopenia due to suppression of bone marrow | –
5 | CCOCn1c(Cc2ccccc2)c(C(C)C)c(=O)[nH]c1=O [MKC-442, 6-Benzyl-1-ethoxymethyl-5-isopropyluracil] | – | 0.82 | 0.63 | 0.43 | – | 33.5
6 | CCc1cc(CCc2nc3ccccc3o2)c(=O)[nH]c1C [L-696229, 3-[2-(Benzoxazole-2-yl)ethyl]-5-ethyl-6-methylpyridine-2(1H)-one] | – | 0.97 | 0.99 | 1.06 | – | –
